Measurements: patent US10035796B2, “Crystalline forms of a BACE inhibitor, compositions, and their use” (Merck Sharp & Dohme Corp., priority 2014, dated 2018)

Legend:
[1] = Single oral dose pharmacokinetic study in male rats; format: in vivo; details: male rats (n=4 per group), suspension in 4% hydroxypropyl methylcellulose, nominal dose 100 mg/kg, FIG. 5
Procedure: (FIG. 5). […] To generate the data shown in FIG. 5, a single oral dose pharmacokinetic study was conducted as a two-way parallel design in male rats (n=4 per group). For each form a suspension was prepared in 4% hydroxypropyl methylcellulose with nominal dose as 100 mg/kg.

[2] = Hygroscopicity by dynamic vapor sorption (DVS); format: physicochemical
Procedure: Hygroscopicity was evaluated by using a dynamic vapor sorption instrument (DVI). The experiment was performed under controlled temperature conditions with temperature set at 25° C. Following a drying step at 40° C. for 60 minutes, samples were subjected to water vapor starting from 5% relative humidity with stepwise increase up to 95% relative humidity in 5% increments. The desorption experiment was performed under the same conditions with a stepwise decrease in relative humidity. Maximum equilibrium time was held as 180 minutes with equilibrium criteria as 0.005 weight % in 5 min.

Row | moisture uptake ([2]; ambient temperature, 95% relative humidity, DVS measurement) | hygroscopicity according to the European Pharmacopeia classification ([2]; dynamic vapor sorption, 25° C.) | SMILES | mean plasma concentration-time profile [1] | crystalline form by PXRD after the vapor sorption analysis ([2]; after sorption/desorption between 5% and 95% relative humidity)
1 |  |  | CN1C(N)=NC(C)(c2cc(NC(=O)c3ccc(F)cn3)ccc2F)CS1(=O)=O.Cl (centres unmarked) [amorphous HCl salt form] | excellent | 
2 | 0.04 weight % | non-hygroscopic | CN1C(=N)N[C@](C)(c2cc(NC(=O)c3ccc(F)cn3)ccc2F)CS1(=O)=O [Crystalline Anhydrous Form 1] | essentially identical to that of the corresponding amorphous HCl salt form | retain the identical Crystalline Anhydrous Form 1
